In patent EP1808169B1, “Polyhydroxylated aromatic compounds for the treatment of amyloidosis and alpha-synuclein fibril diseases” (priority 1999, dated 2001):
Marks after values point to notes of the source that are not given here.

Assays:
Type in all cases: biochemical
[1] = tested on: Aβ 1-42 amyloid fibrils; assay: Thioflavin T fluorometry: disassembly/disruption of pre-formed Aβ 1-42 amyloid fibrils; conditions: for Fluorescence inhibition, %, at the Aβ 1-42:compound w/w ratios given: overnight (~18 hours) at 37°C, pH 7.0, mean of triplicate ± standard deviation
Protocol: For the first study, 1 mg of Aβ 1-42 (Bachem Inc., Torrance, CA, USA) was dissolved in 1.0 ml of double distilled water (1 mg/ml solution). 25 µM of Aβ 1-42 was then incubated overnight (~18 hours) at 37°C, in the absence or presence of 100µg/ml of the following compounds: 1) EDTA (Sigma Chemical Company, St. Louis, MO, USA), 2) myricetin (Acros, Somerville, New Jersey, USA), 3) exifone (Acros) 4) pyrogallol (Sigma), 5) tannic acid (Acros), 6) pyrocatechol (Acros), 7) quercetin (Sigma), 8) ellagic acid (Acros), 9) 1,2,4-benzenetriol (Acros), 10) 5-hydroxydopamine (Acros), 11) gallamide hydrate (Acros), 12) gallic acid (Sigma), 13) ethyl gallate (Acros), 14) quinic acid (Acros), 15) propyl gallate (Sigma), and 16) phloroglucide (Acros), each in the presence of 150 mM Tris HCl, 10 mM NaCl (pH 7.0) with 0.02% sodium azide. In this study, the Aβ 1-42:compound weight ratio was 1:1.
For the second study, 1 mg of Aβ 1-42 (Bachem) was dissolved in 1.0 ml of double distilled water (1 mg/ml solution). 25 µM of Aβ 1-42 was then incubated overnight (~18 hours) at 37°C, in the absence or presence of 50µg/ml of the following compounds: 1) gallic acid, 2) ethyl gallate, 3) quinic acid, 4) gallamide trihydrate, 5) ellagic acid, 6) propyl gallate, and 7) pyrogallol, each in the presence of 150 mM Tris HCl, 10 mM NaCl (pH 7.0) with 0.02% sodium azide. In this study, the Aβ 1-42:compound weight ratio was 2:1.
Thioflavin T is known to bind to fibrillar amyloid proteins, and an increase in fluorescence correlates with an increase in amyloid fibril formation, whereas a decrease in fluorescence correlates with a decrease in amyloid fibrils due to disassembly and/or disruption. The Alzheimer's Aβ protein (1-42) when placed in solution, such as distilled water, tends to spontaneously form amyloid fibrils. Using this sensitive assay, any decreases or increases in fluorescence was previously shown to correlate with a decrease or increase in the amount of amyloid fibrils (see the documents cited above), allowing one to identify and quantitate the extent of potential inhibitors and/or enhancers of Alzheimer's Aβ 1-42 amyloid fibrils.
To assess the effects of each compound on potential disassembly/ disruption of preformed Aβ 1-42 fibrils, 50 µl of Aβ 1-42 with or without test compounds (described above) were added to 1.2 ml of 100µM Thioflavin T (Sigma) in 50mM NaH2PO4 (pH 6.0) for fluorometry readings. […] Fluorescence emission at 482 nm was measured on a Turner instrument-model 450 fluorometer at an excitation wavelength of 450 nm. For each determination, the fluorometer was calibrated by zeroing in the presence of the Thioflavin T reagent alone, and by setting the 50 ng/ml riboflavin (Sigma Chemical Co., St. Louis, MO) in the Thioflavin T reagent to 1800 fluorescence units. All fluorescence determinations were based on these references and any fluorescence given off by any of the compounds in the presence of the Thioflavin T reagent was always subtracted from all pertinent readings.
For all fibrillogenesis studies utilizing Thioflavin T fluorometry, as disclosed herein, comparisons of amyloid protein in the presence or absence of test compounds were based on paired Student's t tests with data shown as the mean of triplicate measurements ± standard deviation.

[2] = target: T1, human amylin (Homo sapiens, UniProt P10997); assay: Thioflavin T fluorometry: disassembly/disruption of islet amyloid (amylin) fibrils; conditions: 25 µM human amylin, 100µg/ml compound, amylin:compound weight ratio 1:1, overnight (~18 hours) at 37°C, pH 7.0; read-out: Fluorescence inhibition, %
T1 construct: This amyloid protein involved consists of a 37 amino acid protein known as islet amyloid polypeptide or amylin; purchased Bachem
T1 sequence (P10997 34-70 limits assumed): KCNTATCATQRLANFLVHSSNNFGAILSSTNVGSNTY

[3] = target: T1, human amylin; assay: Congo red staining of amylin fibrils on gelatin-coated slides (polarized light); conditions: result in words; amylin + compound after overnight incubation, compared with amylin alone
Protocol: Following Thioflavin T fluorometry readings as described in Example 1, 5µl aliquots of amylin only, amylin + myricetin, amylin + exifone, and amylin + tannic acid were also taken, allowed to air dry overnight on gelatin-coated slides, and stained with Congo red as previously described (Castillo et al., Diabetes 47:612-620, 1998).

[4] = tested on: Aβ 1-40 amyloid fibrils; assay: Modified Congo red-Aβ spectrophotometric assay: disaggregation of pre-formed Aβ 1-40 fibrils (3 days incubation); conditions: Aβ:compound weight ratio 2:1; fibrillized Aβ 1-40 incubated with compound 3 days at 37°C in TBS pH 7.0; Δ absorbance at 540 nm; triplicate
Protocol: In this study, a Congo red-Aβ spectrophotometric assay (Klunk et al., Anal. Biochem. 266:66-76, 1999) was modified to determine the effectiveness of polyhydroxylated aromatic compounds on the disaggregation of pre-formed Aβ 1-40 amyloid fibrils. For this assay, 1 mg of Aβ 1-40 (Bachem) was incubated for 4 days in distilled water at 37°C to spontaneously produce amyloid fibrils. 25pM of fibrillized Aβ 1-40 was then incubated in triplicate with various test compounds for 3 days at 37°C in Tris-buffered saline (TBS)(100 mM Tris; 50 mM NaCl; pH 7.0, with 0.02% sodium azide), at an Aβ:compound weight ratio of 2:1. Following incubation, 50µl of 360 µM Congo red (Sigma) in distilled water was then added to 250 µl of each incubation mixture, giving a final Aβ:Congo red molar ratio of 1:3. After 10 minutes, the absorbance at 405 nm (reference wavelength to account for the absorbance of Congo red alone at 540 nm) and 540 nm (sample absorbance where "sample" refers to Aβ alone, test compound alone, or Aβ plus test compound, all in the presence of Congo red) was determined using a Biorad Model 550 BLISA Plate Reader (Biorad, Hercules, CA, USA). The absorbance at wavelength 405 nm was automatically subtracted by the ELISA plate reader from the absorbance at wavelength 540 nm (difference is referred to as Δ absorbance)(see Klunk et al. cited above). Therefore, the Δ absorbance reading at 540 nm was proportional to the amount of aggregated Aβ left in solution (Klunk et al.).
For all experiments involving test compounds, the Δ absorbance reading at 540 nm of the test compound alone (in the absence of Aβ), was always subtracted from the corresponding Δ absorbance reading at 540 nm of the test compound in the presence of Aβ. Using this modification of the method of Klunk et al., the use of a greater final concentration of Congo red, i.e. 60µM instead of 14µM, in the presence of fibrillar Aβ gave an overall absorbance at 540 nm that was always below 1.0 Absorbance Unit (AU), and well within the linear absorbance range.
The following polyhydroxylated aromatic containing compounds were tested using the above described Congo red-Aβ spectrophotometric assay to determine their effectiveness on disaggregation of pre-formed Aβ 1-40 amyloid fibrils: 1) gallic acid, 2) ethyl gallate, 3) quinic acid, 4) gallamide trihydrate, 5) ellagic acid, 6) propyl gallate, and 7) pyrogallol.

[5] = Aβ 1-42:compound w/w ratio 1:1, 25 µM Aβ 1-42, 100µg/ml compound
[6] = Aβ 1-42:compound w/w ratio 2:1, 25 µM Aβ 1-42, 50µg/ml compound

| Structure (SMILES) | Fluorescence inhibition, %, at the Aβ 1-42:compound w/w ratios given [1, 6] [%] | Decrease in absorbance, % [4] | other results |
| --- | --- | --- | --- |
| Oc1cc(O)cc(-c2c(O)cc(O)cc2O)c1 [Phloroglucide, phloroglucide] |  |  | Fluorescence inhibition, %, at the Aβ 1-42:compound w/w ratios given [1, 5]: 30 ± 0.6% |
| O=c1c(O)c(-c2cc(O)c(O)c(O)c2)oc2cc(O)cc(O)c12 [Myricetin, myricetin] |  |  | inhibition at 100 µg/mL [2]: 97.4 ± 0.3%; Congo red staining [3]: marked decrease in Congo red staining |
| Oc1cccc(O)c1O [Pyrogallol, pyrogallol] | 72 ± 3.8 | 63 ± 3.4% |  |
| O=C(c1cc(O)c(O)c(O)c1)c1ccc(O)c(O)c1O [Exifone, exifone] |  |  | Fluorescence inhibition, %, at the Aβ 1-42:compound w/w ratios given [1, 5]: 93 ± 1.4%; inhibition at 100 µg/mL [2]: 99.1 ± 0.5%; Congo red staining [3]: marked decrease in Congo red staining |
| O=C(O)CN(CCN(CC(=O)O)CC(=O)O)CC(=O)O [EDTA, reference compound] |  |  | disassembly/disruption of Aβ 1-42 amyloid fibrils ([1]; result in words, 100µg/ml compound, 25 µM Aβ 1-42, weight ratio 1:1, overnight at 37°C): no significant disassembly/disruption |
| O=c1oc2c(O)c(O)cc3c(=O)oc4c(O)c(O)cc1c4c23 [Ellagic acid, ellagic acid] | 62 ± 3.9 | 54 ± 2.8% |  |
| O=C(O)[C@]1(O)C[C@@H](O)[C@@H](O)[C@H](O)C1 [Quinic acid, quinic acid] | 0.5 ± 3.9 | 0 + 5.0** % |  |
| NC(=O)c1cc(O)c(O)c(O)c1.O.O.O [Gallamide trihydrate, gallamide trihydrate] | 60 ± 2.2 | 31 ± 1.9% |  |
| CCOC(=O)c1cc(O)c(O)c(O)c1 [Ethyl gallate, ethyl gallate] | 30 ± 3.7 | 28 ± 5.0% |  |
| CCCOC(=O)c1cc(O)c(O)c(O)c1 [Propyl gallate, propyl gallate] | 38 ± 4.8 | 17 ± 7.3 % |  |
